Patent US12691084B2, “Pharmaceutical composition for preventing or treating bone diseases” (INDUSTRY FOUNDATION OF CHONNAM NATIONAL UNIVERSITY, priority 2019, dated 2026)

Legend:
[1] = test system: monocytes isolated from mouse bone marrow treated with RANKL; test: Osteoclast differentiation inhibition, TRAP staining and assay; assay type: cell-based; settings: 10 μM; RANKL; TRAP staining, Image J
Description: Macrophages were isolated from bone marrow of 8-week old C57BL/6J mice, and seeded on a 96-well plate in an amount of 1×10^4 cells per well, followed by treating the cells with osteoclast differentiation factors M-CSF and RANKL at 30 ng/ml and 50 ng/ml, respectively. At the same time, the compounds were used for treatment, followed by culturing the cells for 3 to 4 days. Thereafter, differentiation influence was evaluated through TRAP staining and cell counting. Specific experimental procedures and results are as follows.
The bone marrow of a 10-week-old female mouse was isolated from the hip bone, femur and tibia, and incubated in α-MEM medium (Gibco, 12561-056, 10% fetal bovine serum, 1% penicillin/streptomycin) containing macrophage colony stimulating factor (M-CSF, PeproTech, 315-02, 30 ng/ml) for […] so as to isolate only monocytes. The isolated monocytes were treated with receptor activator of nuclear factor kappa B ligand (RANKL, PeproTech, 315-11, 50 ng/ml) to induce osteoclast differentiation. When a morphology of fused multinuclear cells began to appear from day 3 after treatment with RANKL, the cells were differentiated into giant multinuclear cells for 4 to 6 days (see FIG. 1), and dead by cell apoptosis after 6 days.
During RANKL treatment, each PMSA compound was also used for treatment, followed by culturing the cells for 3 or 5 days to confirm the effects of inhibiting osteoclast differentiation.
1×10^4 monocytes isolated from mouse bone marrow were put into a 96-well plate and treated with RANKL and PMSA together to confirm the effect of each PMSA on osteoclast differentiation ability. Each PMSA was used for treatment by concentration. The activity of tartrate-resistant acid phosphatase (TRAP), which has increased expression during osteoclast differentiation, was confirmed using a TRAP activity assay kit (Cosmo Bio, PMC-AK04F-COS) (see FIG. 2).
Further, after staining, the multinuclear cells formed during osteoclast differentiation were observed under a microscope, and each well was photographed and a differentiation area ratio per total area was determined using Image J software. […] Specifically, at 10 μM concentration, cells were differentiated into osteoclasts by 30% when using #25 (PMSA-3-Ac), similarly, 74% using #25-C (PMSA-Ph), 63% using #25-N (PMSA-PhN), 41% using #25-PhO (PMSA-O), and only 1% using #25-D12 (PMSA-2-OMe-5-Cl), respectively. […]

mouse bone marrow cells = test: Bone resorption assay on calcium phosphate coated plate; assay type: cell-based; settings: 6 days; for bone resorption ability: compared to Ctrl
Description: Bone resorption ability was confirmed using a bone resorption assay kit (Cosmo Rio, CSR-BRA). 2.5×10^4 mouse bone marrow cells per well were put into a 48-well plate coated with calcium phosphate, followed by treating the cells with PMSA to perform differentiation for 6 days. After 6 days, a fluorescence absorbance was measured with the culture medium to confirm the bone absorption ability. Further, decomposition degree of calcium phosphate was photographed a microscope to confirm the bone resorption ability. […] In FIG. 4, BMMs refer to monocytes that are not differentiated osteoclasts.
Further, the bone resorption ability was confirmed using a bone resorption assay kit (Cosmo Bio, CSR-BRA). 2.5×10^4 mouse bone marrow cells per well were put into a 48-well plate coated with calcium phosphate, and were differentiated for 6 days while being treated with PSTP-3,5-Me. After 6 days, the fluorescence absorbance was measured with the culture medium to confirm the bone absorption ability.

Microsomal stability (H) = assay type: in vitro ADME, human; settings: H of H/M; criterion >60%
Description: (§1) In order to analyze the drug metabolism of PMSA compound, ADME evaluation was requested to the Daegu-Gyeongbuk Advanced Medical industry Promotion Foundation (DGMIF). Metabolic stability of drugs using liver microsomes (microsomal stability), drug metabolism inhibitory ability by five CYP450 enzymes, plasma metabolism (plasma stability), plasma protein binding, and intestinal permeability of drugs (PAMPA, parallel artificial membrane permeability assay) were analyzed. […] Further, it was confirmed that the permeability resistance was excellent (see Table 3 below). On the other hand, for one of PMSA derivatives, that is, 2-(N-(3,5-dimethylphenyl)methylsulfinamido)-N-(2 (phenylthio)phenyl)propanamide (#25-D5), intestinal permeability of the drug (PAMPA) was not measured.

Microsomal stability (M) = assay type: in vitro ADME, mouse; settings: M of H/M; criterion >60%
Description: as §1

CYP1A2 = biological target: T1, CYP1A2 (Homo sapiens, UniProt P05177); test: CYP450 drug metabolism inhibition, 1A2; assay type: in vitro ADME; settings: criterion remaining activity >50%
T1 sequence (P05177 1-516): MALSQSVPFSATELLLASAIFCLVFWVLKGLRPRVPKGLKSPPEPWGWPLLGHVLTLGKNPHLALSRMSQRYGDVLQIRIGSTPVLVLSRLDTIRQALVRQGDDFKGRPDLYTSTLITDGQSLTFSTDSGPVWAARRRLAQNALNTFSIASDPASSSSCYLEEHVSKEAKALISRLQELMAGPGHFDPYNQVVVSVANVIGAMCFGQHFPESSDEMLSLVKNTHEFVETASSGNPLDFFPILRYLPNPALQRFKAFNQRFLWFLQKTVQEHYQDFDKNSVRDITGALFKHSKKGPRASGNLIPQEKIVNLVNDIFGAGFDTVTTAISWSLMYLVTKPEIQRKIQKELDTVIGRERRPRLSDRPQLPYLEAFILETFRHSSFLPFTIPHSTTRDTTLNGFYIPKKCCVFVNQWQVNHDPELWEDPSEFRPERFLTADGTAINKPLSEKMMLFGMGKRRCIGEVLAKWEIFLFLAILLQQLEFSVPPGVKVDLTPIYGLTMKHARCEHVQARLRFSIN
Description: as §1

CYP2C9 = CYP2C9 (Homo sapiens, UniProt P11712); test: CYP450 drug metabolism inhibition, 2C9; assay type: in vitro ADME; settings: criterion remaining activity >50%
Description: as §1

CYP2C19 = CYP2C19 (Homo sapiens, UniProt P33261); test: CYP450 drug metabolism inhibition, 2C19; assay type: in vitro ADME; settings: criterion remaining activity >50%
Description: as §1

CYP2D6 = CYP2D6 (Homo sapiens, UniProt P10635); test: CYP450 drug metabolism inhibition, 2D6; assay type: in vitro ADME; settings: criterion remaining activity >50%
Description: as §1

CYP3A4 = CYP3A4 (Homo sapiens, UniProt P08684); test: CYP450 drug metabolism inhibition, 3A4; assay type: in vitro ADME; settings: criterion remaining activity >50%
Description: as §1

Plasma stability = assay type: in vitro ADME
Description: as §1

plasma proteins = test: Plasma protein binding (PPB); assay type: in vitro ADME, Human; settings: for binding with plasma proteins: conclusion from ADME evaluation
Description: as §1

[2] = PAMPA, parallel artificial membrane permeability assay; assay type: in vitro ADME; settings: for Papp: PAMPA, criterion >40, read-out: PAMPA (>40) Pe; for permeability resistance: conclusion from ADME evaluation
Description: as §1

[3] = ADME evaluation (DGMIF), overall conclusion on toxicity; assay type: in vitro ADME; settings: conclusion from ADME evaluation
Description: as §1

CYP3A4, sequence (P08684 whole entry): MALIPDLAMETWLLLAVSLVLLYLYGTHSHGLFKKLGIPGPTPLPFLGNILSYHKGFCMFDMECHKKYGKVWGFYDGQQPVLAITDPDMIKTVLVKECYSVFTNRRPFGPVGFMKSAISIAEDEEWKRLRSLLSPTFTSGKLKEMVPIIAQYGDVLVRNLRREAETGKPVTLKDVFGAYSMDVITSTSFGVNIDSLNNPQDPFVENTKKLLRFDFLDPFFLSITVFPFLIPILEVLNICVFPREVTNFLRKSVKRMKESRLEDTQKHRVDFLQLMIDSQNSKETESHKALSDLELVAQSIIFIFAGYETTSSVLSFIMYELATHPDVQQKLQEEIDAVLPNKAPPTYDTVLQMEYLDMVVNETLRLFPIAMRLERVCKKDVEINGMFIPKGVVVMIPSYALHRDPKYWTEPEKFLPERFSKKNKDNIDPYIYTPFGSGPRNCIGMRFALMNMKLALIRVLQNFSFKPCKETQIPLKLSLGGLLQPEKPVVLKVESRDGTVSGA
CYP2C19, sequence (P33261 whole entry): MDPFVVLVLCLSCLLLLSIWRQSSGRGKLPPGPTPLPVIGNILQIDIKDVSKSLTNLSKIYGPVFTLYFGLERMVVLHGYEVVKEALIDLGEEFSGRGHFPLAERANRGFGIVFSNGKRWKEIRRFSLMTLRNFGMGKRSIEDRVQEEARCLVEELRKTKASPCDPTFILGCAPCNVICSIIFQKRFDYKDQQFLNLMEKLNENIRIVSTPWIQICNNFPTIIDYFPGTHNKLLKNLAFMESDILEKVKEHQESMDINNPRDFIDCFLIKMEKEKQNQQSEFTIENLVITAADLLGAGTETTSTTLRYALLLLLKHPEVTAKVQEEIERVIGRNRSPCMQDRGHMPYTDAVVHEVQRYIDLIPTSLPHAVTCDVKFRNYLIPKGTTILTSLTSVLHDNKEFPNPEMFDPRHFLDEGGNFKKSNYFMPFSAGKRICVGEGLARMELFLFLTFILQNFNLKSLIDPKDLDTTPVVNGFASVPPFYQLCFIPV
CYP2D6, sequence (P10635 whole entry): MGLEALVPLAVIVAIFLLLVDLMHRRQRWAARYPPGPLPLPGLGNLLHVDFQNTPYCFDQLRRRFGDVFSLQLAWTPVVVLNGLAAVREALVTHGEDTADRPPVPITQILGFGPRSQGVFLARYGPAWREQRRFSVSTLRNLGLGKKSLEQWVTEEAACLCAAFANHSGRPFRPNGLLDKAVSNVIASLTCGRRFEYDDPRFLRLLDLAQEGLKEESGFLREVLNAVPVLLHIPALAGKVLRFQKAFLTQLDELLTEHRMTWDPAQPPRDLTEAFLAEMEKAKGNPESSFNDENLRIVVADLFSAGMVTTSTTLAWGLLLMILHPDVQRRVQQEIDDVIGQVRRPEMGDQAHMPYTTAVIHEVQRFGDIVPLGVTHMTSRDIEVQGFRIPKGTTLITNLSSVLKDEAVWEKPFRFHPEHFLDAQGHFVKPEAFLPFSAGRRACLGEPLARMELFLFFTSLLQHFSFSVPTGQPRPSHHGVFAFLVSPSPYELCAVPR
CYP2C9, sequence (P11712 whole entry): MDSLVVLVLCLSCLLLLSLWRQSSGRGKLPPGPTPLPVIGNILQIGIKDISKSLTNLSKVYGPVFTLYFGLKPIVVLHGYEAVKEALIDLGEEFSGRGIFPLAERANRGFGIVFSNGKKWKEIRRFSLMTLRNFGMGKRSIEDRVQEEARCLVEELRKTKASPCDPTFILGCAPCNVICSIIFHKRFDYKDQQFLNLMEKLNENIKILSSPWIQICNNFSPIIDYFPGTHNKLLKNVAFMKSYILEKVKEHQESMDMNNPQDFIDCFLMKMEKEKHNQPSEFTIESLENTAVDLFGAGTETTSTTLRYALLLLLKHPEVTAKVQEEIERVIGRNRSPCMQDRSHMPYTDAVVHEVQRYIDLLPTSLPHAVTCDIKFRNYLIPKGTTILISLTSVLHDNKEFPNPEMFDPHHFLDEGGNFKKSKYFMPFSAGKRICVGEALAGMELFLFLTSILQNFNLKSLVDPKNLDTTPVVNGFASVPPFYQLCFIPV

| Structure (SMILES) | cells differentiated into osteoclasts (differentiation area ratio per total area) [1] | bone resorption ability (mouse bone marrow cells) | Microsomal stability (>60%) H (Microsomal stability (H)) | Microsomal stability (>60%) M (Microsomal stability (M)) | CYP 1A2 remaining activity (CYP1A2) | CYP 2C9 remaining activity (CYP2C9) | CYP 2C19 remaining activity (CYP2C19) | CYP 2D6 remaining activity (CYP2D6) | CYP 3A4 remaining activity (CYP3A4) | Plasma S Human 30 min (% Remaining) (Plasma stability) | Plasma S Human 120 min (% Remaining) (Plasma stability) | PPB Human (%, bound) (plasma proteins) | binding with plasma proteins (plasma proteins) | Papp [2] | permeability resistance [2] | toxicity [3] | decrease in bone resorption ability (mouse bone marrow cells; compared to differentiated osteoclasts (Ctrl) not treated, fluorescence absorbance) |
| --- | --- | --- | --- | --- | --- | --- | --- | --- | --- | --- | --- | --- | --- | --- | --- | --- | --- |
| CC(=O)c1cccc(N(CC(=O)Nc2ccccc2Nc2ccccc2)S(C)(=O)=O)c1 [#25-N, 2-(N-(3-acetylphenyl)methylsulfonamido)-N-(2-(phenylamino)phenyl)acetamide] | 63% | slightly decreased | 3.3% | 4.0% | 81.6% | 47% | 9% | 12.6% | 43.1% | 100/100 % Remaining | 100/100 % Remaining | 97.9 %, bound | good | 47.2 ×10⁻⁶ cm/s | excellent | low toxicity |  |
| CC(=O)c1cccc(N(CC(=O)Nc2ccccc2-c2ccccc2)S(C)(=O)=O)c1 [#25-C, N-([1,1′-biphenyl]-2-yl)-2-(N-(3-acetylphenyl)methylsulfonamido)acetamide] | 74% |  | 50.6% | 3.7% | 96.8% | 67.2% | 6.9% | 18.3% | 72% | 100/100 % Remaining | 100/100 % Remaining | 97.9 %, bound | good | 76.6 ×10⁻⁶ cm/s | excellent | low toxicity | 13.4% |
| CC(=O)c1cccc(N(CC(=O)Nc2ccccc2Oc2ccccc2)S(C)(=O)=O)c1 [#25-O, 2-(N-(3-acetylphenyl)methylsulfonamido)-N-(2-phenoxyphenyl)acetamide] | 41% | slightly decreased | 12.5% | 3.1% | 100% | 49.7% | 10.4% | 53.1% | 70.1% | 94.3 % Remaining | 96.4 % Remaining | 98.4 %, bound | good | 66.2 ×10⁻⁶ cm/s | excellent | low toxicity |  |
